# Laboratory results as given in a melting point compilation (Tetko et al.; mined from patent text by program, amines drawn as free bases though some values may be those of a salt).
row,SMILES,melting point
1,NC(=O)C1N=C(c2ccccc2)c2cc(Cl)ccc2NC1=O (stereo unspecified),255 to 256 °C
2,C#Cc1ccc2c(c1)C(c1ccccn1)=NC(C)c1c(C(=O)OCC)ncn1-2 (stereo unspecified),235 to 237 °C
3,Cc1cc(CNC2CCCN(C(=O)c3ccc(Nc4nccc(Nc5ccc(F)cc5)n4)cc3)C2)no1 (stereo unspecified),190 to 191 °C
4,COc1ccc(N2C(=O)CCNc3ccc(Cl)cc32)cc1,198 to 199 °C
5,CNC(=O)c1cccc(NC(=O)CCc2ccc(O)cc2)c1,158 °C
6,CCOC(=O)CCc1ccc(CCNS(=O)(=O)CCc2ccc(Cl)cc2)cc1,77 to 78 °C
7,O=C(O)[C@H]1C=C[C@H](c2ccccc2)n2c(=O)n(CCCl)c(=O)n21 (relative stereo),141 to 143 °C
8,O=c1c2cc(F)ccc2nc(CSc2ncnc3[nH]cnc23)n1-c1ccccc1Cl,233 °C
9,CN1CCC(CC(=O)N2c3ccccc3NC(=O)c3cscc32)CC1,184 to 185 °C
10,CC(=O)Nc1ccc(C(O)C2CCN(CCc3ccccc3)CC2)cc1 (stereo unspecified),173 to 174 °C
11,CC(C)Oc1cc(CCC(=O)NS(=O)(=O)c2ccc(C(F)(F)F)cc2)n(Cc2ccc(Cl)cc2Cl)n1,167 to 169 °C
12,COc1ccc(NC(=O)c2ccc(OC)c(C34CC5CC(CC(C5)C3)C4)c2)c([N+](=O)[O-])c1,208 to 210 °C
13,O=C1C(c2ccccc2)=C(c2ccccc2)C(=O)N1c1ccccc1C(F)(F)F,152 to 153 °C
14,COC1=C(OC)C(=O)C2=C(CC(CCCCOc3ccc(C(=O)N4CCOCC4)cc3)C2)C1=O,128 to 131 °C
15,O=C(C1CC1)N1CCc2cc(S(=O)(=O)N3CCN(c4cccc(Cl)c4)CC3)ccc21,162 to 163 °C
16,CN1C(=O)C(O)N(C2CCCCC2)C1=O (stereo unspecified),140 to 141 °C
17,CCOC(=O)c1c2n(c3cc(N4CCN(CC(C)=O)CC4)c(F)cc3c1=O)CS2,170 to 172 °C
18,CCc1cc(/C=C/[N+](=O)[O-])ccc1N=C1SCC2(CCCC2)N1C1CCCC1,141 to 142 °C
19,COc1cc(OCCN2CCOCC2)c(C=CC(=O)c2ccc(S(N)(=O)=O)cc2)cc1-c1cccs1,186 to 188 °C

row,SMILES,melting point
1,CN(C(=O)C(Cl)(Cl)Cl)c1nc(Cl)c([N+](=O)[O-])s1,146 to 149 °C
2,CCn1c(=O)n(O)c(=O)c2cc(F)c(N3CCNCC3)cc21,206 to 208 °C
3,Cc1c(C)c(NC(=O)CC(C)(C)C)c2c(c1C)C(O)(c1ccc(C(C)C)cc1)C(C)(C)O2 (stereo unspecified),178 to 179 °C
4,CCOC(=O)c1cnc2onc(C)c2c1N(C)S(=O)(=O)c1ccc(Oc2ccncc2)cc1,155 to 157 °C
5,CCC1(CCCCCBr)C(=O)Nc2ccc(F)cc21 (stereo unspecified),82 to 83 °C
6,Cc1ccccc1C(=O)Nc1ccc(C(=O)N2CCCC(OCC(=O)N(C)C)c3ccccc32)cc1 (stereo unspecified),203 to 204 °C
7,CCOC(=O)c1cn(C2CC2)c2c(C#N)c(F)c(F)cc2c1=O,209 to 211 °C
8,CC1CCC(NC(=O)NS(=O)(=O)c2ccc(CCNC(=O)N3CCC(C)CC3=O)cc2)CC1 (stereo unspecified),190 to 191 °C
9,CC(=O)CCC(=O)Nc1cc(CO)cc(Nc2c3ccccc3nc3ccccc23)c1,197 to 199 °C
10,CCOC(NC(=O)c1ccccc1)C(N)=O (stereo unspecified),148 to 150 °C
11,N=C(N)Nc1nc(CSCCC2=NS(=O)(=O)NC(N)=N2)cs1,175 to 192 °C
12,NC(=O)c1cc(Br)ccc1Nc1ccncc1,298 to 299 °C
13,CCN(CC)CCN(CCN1CCCCC1)c1ccc(-c2nc3ccccc3[nH]2)cc1,190 to 191 °C
14,CC(=O)C1=CCC2C3CCC4CC(OS(=O)(=O)c5ccc(C)cc5)CCC4(C)C3CCC12C (stereo unspecified),146 to 148 °C
15,N#Cc1ccc2c(c1)C[C@H](NS(=O)(=O)c1ccccc1)CN2C(=O)c1ccccc1,174 to 175 °C
16,CC(C)(C)c1ccc(C=NOCCOc2ccc(C(=O)O)c(O)c2)cc1,161 to 163 °C
17,O=C(NO)Oc1ccccc1,99.5 to 101 °C
18,NC(=O)Cc1ccc(OCC(O)CNCCCn2cnc3ccccc32)cc1 (stereo unspecified),92 to 96 °C

# The next lines start with the values.
row,melting point,SMILES
1,133 to 135 °C,CNS(=O)(=O)Cc1ccc2c(c1)c(CC#N)cn2Cc1ccccc1
2,206 °C,CCN1CCc2ccc(Nc3ncc(Cl)c(NCCC(=O)NC)n3)cc2CC1
3,> 270 °C,O=C(O)c1cnc2c3ccccc3ncn2c1=O
4,165 to 166 °C,CCC(CC)Nc1cc(C)nc(Cl)c1N
5,70 to 72 °C,C=CCOc1ccccc1[N+](=O)[O-]
6,123 to 125 °C,COc1cccc(NC(=O)N=C2CCCN2C)c1
7,184 to 186 °C,COc1cc(N2CCN([C@H]3CC[C@@H](c4cccs4)CC3)CC2)c2ncccc2c1
8,246 to 247 °C,CCCn1c(=O)c2[nH]c(/C=C/c3ccc(OC)c(OC)c3OC)nc2n(CCC)c1=O
9,192 to 196 °C,Cc1cc(-n2ccnc2)c2cccc(O)c2n1
10,249 to 252 °C,CC(C)c1ccc(N2C(=O)CN(c3cccc(C(=O)O)c3)C2=O)cc1
11,242 °C,Cc1nc2c(n1-c1ccccc1)C(=O)c1ccccc1C2=O
12,124 to 136 °C,COC(=O)C1Oc2ccccc2C(C)c2cc(Cl)ccc2O1 (stereo unspecified)
13,182 to 183 °C,COc1ccc2[nH]c(SCc3nccc(N(C)C)n3)nc2c1
14,147 to 148 °C,CCOC(=O)c1c(CCl)nc2cc(OC)c(OC)cc2c1-c1ccc(F)cc1
15,191 to 195 °C,CC(C)(C)NC(=O)c1cccc(C(=O)O)c1O
16,208 to 210 °C,COc1ccc(-c2c3c(cc4ccc(OCc5ccccc5)cc24)C(=O)NC3=O)cc1
17,122 to 124 °C,COc1ccc(C2=NN(c3ccccc3)C(=O)[C@H]3CCCC[C@@H]23)cc1OC (relative stereo)

row,melting point,SMILES
1,71 to 73 °C,Clc1ccc2sc(=Nc3ccccc3)sc2c1
2,189 to 191 °C,Cc1cccc(Sc2ccc3c(c2)CC[C@H]2NC(=O)CC[C@]32C)c1
3,213 to 215 °C,CCCN=C(N)Nc1ccnc(CCCCc2ncc(C)c(O)n2)n1
4,200 to 202 °C,CCOC(=O)Cn1c(=O)sc2ccc(C3=NNC(=O)NC3C)cc21 (stereo unspecified)
5,228 to 230 °C,Clc1ccc2c(c1)N=C(NCCCn1ccnc1)c1ccccc1N2
6,94 to 95 °C,CCOC(OCC)C(N)=C(c1ccncc1N)c1ccccc1Cl
7,208 to 210 °C,COc1ccc2c(c1)C(N1C(=O)c3ccccc3C1=O)C(=O)N2c1ccc(F)cc1 (stereo unspecified)
8,118 to 120 °C,CCOC(=O)CC1CCCc2cc(O)c(C(=O)c3ccccc3)cc21 (stereo unspecified)
9,40 to 41 °C,CC(C)(C)OC(=O)N1CCC[C@H]1COc1cccc2[nH]ccc12
10,145 to 149 °C,CN(Cc1cc2c(=O)c(C(=O)NCc3ccc(Cl)cc3)cn(C)c2o1)CC(O)c1cccnc1 (stereo unspecified)
11,118 to 120 °C,CCSc1nnc(-c2ccc(OC)cc2)c(-c2ccc(OC)cc2)n1
12,180 °C,CS(=O)(=O)c1cccc(C(=O)O)c1O
13,166 to 170 °C,O=C(O)CCC(=O)NNc1ccnc2c(NC(=O)c3c(Cl)cccc3Cl)cccc12
14,101 to 102 °C,COc1cccc2c(Cl)nc(C)nc12
15,84 °C,NC[C@H]1COc2ccc(Cl)c(-c3ccccc3C(F)(F)F)c2O1
16,142 to 145 °C,COc1ccc(-c2nc3n(c2-c2ccccn2)CCC3)cc1
17,173 to 175 °C,CC(C)n1nc(-c2c(OC3CCCCC3)nc(N)nc2-c2ccccc2)ccc1=O
